Experimental data reported in ChEMBL document CHEMBL1201862, “PubChem BioAssay data set” (2004).
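These data come from cells grown in 96-well plates and exposed to compound for 48 hours at five concentrations. Abbreviation: GI50, concentration required for 50% inhibition of growth.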 Calls of active or inactive are those of the source. No stated cut-off is given here; in the data, active = GI50 up to about 1.1 µM and inactive = higher.

What was measured:
Test in all cases: DTP human tumour cell line panel, 48 h
ACHN = tested on: ACHN
HCT-15 = tested on: HCT-15
PC-3 = tested on: PC-3
NCI-H23 = tested on: NCI-H23
HL-60 = tested on: HL-60
OVCAR-4 = tested on: OVCAR-4
CCRF-CEM = tested on: CCRF-CEM
COLO 205 = tested on: COLO 205
SK-MEL-2 = tested on: SK-MEL-2
SF-539 = tested on: SF-539
MCF7 = tested on: MCF7
MDA-MB-231 = tested on: MDA-MB-231
NCI/ADR-RES = tested on: NCI/ADR-RES
SF-295 = tested on: SF-295
SW-620 = tested on: SW-620
SN12C = tested on: SN12C
KM12 = tested on: KM12
BT-549 = tested on: BT-549
TK-10 = tested on: TK-10
UACC-257 = tested on: UACC-257
SF-268 = tested on: SF-268
M14 = tested on: M14
LOX IMVI = tested on: LOX IMVI
T47D = tested on: T47D
DU-145 = tested on: DU-145
IGROV-1 = tested on: IGROV-1
U-251 = tested on: U-251
UACC-62 = tested on: UACC-62
EKVX = tested on: EKVX
MDA-N = tested on: MDA-N
HCC 2998 = tested on: HCC 2998
Hs-578T = tested on: Hs-578T
NCI-H226 = tested on: NCI-H226
MOLT-4 = tested on: MOLT-4
NCI-H460 = tested on: NCI-H460
HCT-116 = tested on: HCT-116
A549 = tested on: A549
SK-MEL-28 = tested on: SK-MEL-28
RPMI-8226 = tested on: RPMI-8226
RXF 393 = tested on: RXF 393
K562 = tested on: K562
Malme-3M = tested on: Malme-3M
HT-29 = tested on: HT-29
A498 = tested on: A498
MDA-MB-435 = tested on: MDA-MB-435
OVCAR-3 = tested on: OVCAR-3
CAKI-1 = tested on: CAKI-1
OVCAR-5 = tested on: OVCAR-5
786-0 = tested on: 786-0
UO-31 = tested on: UO-31
SNB-75 = tested on: SNB-75
SK-MEL-5 = tested on: SK-MEL-5
NCI-H522 = tested on: NCI-H522
HOP-62 = tested on: HOP-62
OVCAR-8 = tested on: OVCAR-8

NC(Cc1ccc(S(=O)(=O)O)cc1)C(=O)NC(Cc1ccc(S(=O)(=O)O)cc1)C(=O)NC(Cc1ccc(S(=O)(=O)O)cc1)C(=O)O (stereo not given)
GI50 (ACHN): > 100 µM (inactive)
GI50 (HCT-15): > 100 µM
GI50 (PC-3): > 100 µM (inactive)
GI50 (NCI-H23): > 100 µM (inactive)
GI50 (HL-60): > 100 µM (inactive)
GI50 (OVCAR-4): > 100 µM (inactive)
GI50 (CCRF-CEM): > 100 µM (inactive)
GI50 (COLO 205): > 100 µM (inactive)
GI50 (SK-MEL-2): > 100 µM (inactive)
GI50 (SF-539): > 100 µM (inactive)
GI50 (MCF7): > 100 µM (inactive)
GI50 (MDA-MB-231): > 100 µM (inactive)
GI50 (NCI/ADR-RES): > 100 µM (inactive)
GI50 (SF-295): > 100 µM (inactive)
GI50 (SW-620): > 100 µM (inactive)
GI50 (SN12C): > 100 µM (inactive)
GI50 (KM12): > 100 µM (inactive)
GI50 (BT-549): > 100 µM (inactive)
GI50 (TK-10): > 100 µM (inactive)
GI50 (UACC-257): > 100 µM (inactive)
GI50 (SF-268): > 100 µM (inactive)
GI50 (M14): > 100 µM (inactive)
GI50 (LOX IMVI): > 100 µM (inactive)
GI50 (T47D): > 100 µM (inactive)
GI50 (DU-145): > 100 µM (inactive)
GI50 (IGROV-1): > 100 µM (inactive)
GI50 (U-251): > 100 µM (inactive)
GI50 (UACC-62): > 100 µM (inactive)
GI50 (EKVX): > 100 µM (inactive)
GI50 (MDA-N): > 100 µM (inactive)
GI50 (HCC 2998): > 100 µM (inactive)
GI50 (Hs-578T): > 100 µM (inactive)
GI50 (NCI-H226): > 100 µM (inactive)
GI50 (MOLT-4): > 100 µM (inactive)
GI50 (NCI-H460): > 100 µM (inactive)
GI50 (HCT-116): > 100 µM (inactive)
GI50 (A549): > 100 µM (inactive)
GI50 (SK-MEL-28): > 100 µM (inactive)
GI50 (RPMI-8226): > 100 µM (inactive)
GI50 (RXF 393): > 100 µM (inactive)
GI50 (K562): > 100 µM (inactive)
GI50 (Malme-3M): > 100 µM (inactive)
GI50 (HT-29): > 100 µM (inactive)
GI50 (A498): > 100 µM (inactive)
GI50 (MDA-MB-435): > 100 µM (inactive)
GI50 (OVCAR-3): > 100 µM (inactive)
GI50 (CAKI-1): > 100 µM (inactive)
GI50 (OVCAR-5): > 100 µM (inactive)
GI50 (786-0): > 100 µM (inactive)
GI50 (UO-31): > 100 µM (inactive)
GI50 (SNB-75): > 100 µM (inactive)
GI50 (SK-MEL-5): > 100 µM (inactive)
GI50 (NCI-H522): > 100 µM (inactive)
GI50 (HOP-62): > 100 µM (inactive)
GI50 (OVCAR-8): > 100 µM (inactive)
